Test results reported in patent publication US20230233569A1 (Revolution Medicines, Inc., priority 2020, published 2023).

What was measured:
Capan-1 (K-Ras G12V) = assay: CellTiter-Glo cell viability assay, 5-day treatment; assay type: cell-based; details: Homo sapiens, CAPAN-1, 120 h, 5-day treatment; read-out: Capan-1 Cell Viability assay data (K-Ras G12V, IC50)
In short: (§1)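 Luminescence read-out after 5 days of compound exposure, with plates first brought to room temperature for roughly 30 minutes. Values are percent of averaged DMSO wells, fitted by four-parameter logistic regression.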

NCI-H358 (K-Ras G12C) = assay: as above; assay type: cell-based; details: Homo sapiens, NCI-H358, 120 h, 5-day treatment; read-out: H358 Cell Viability assay data (K-Ras G12C, IC50)
In short: as §1

NRAS G12C = NRAS G12C (Homo sapiens, UniProt P01111+P62937, G12C); assay: Disruption of BRAF RBD interaction with Ras (FRET / MOA assay, with Cyclophilin A); assay type: biochemical; details: NRAS G12C; read-out: NRAS G12C FRET data IC50
KRAS G12D = KRAS G12D (Homo sapiens, UniProt P01116+P62937, G12D); assay: as above; assay type: biochemical; details: read-out: KRAS G12D FRET data, IC50
In short: (§2)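 Biochemical TR-FRET disruption assay: nucleotide-loaded K-Ras with Cyclophilin A and a BRAF RBD construct, compound titrated over 10 points from 30 μM (final).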

KRAS G13D = KRAS G13D (Homo sapiens, UniProt P01116+P62937, G13D); assay: as above; assay type: biochemical; details: KRAS G13D; read-out: KRAS G13D FRET data IC50
In short: as §2

KRAS G12V = KRAS G12V (Homo sapiens, UniProt P01116+P62937, G12V); assay: as above; assay type: biochemical; details: KRAS G12V; read-out: KRAS G12V FRET data IC50
In short: as §2

KRAS G12C = KRAS G12C (Homo sapiens, UniProt P01116+P62937, G12C); assay: as above; assay type: biochemical; details: read-out: KRAS G12C FRET data, IC50
In short: as §2

KRAS WT = KRAS WT (Homo sapiens, UniProt P01116+P62937); assay: as above; assay type: biochemical; details: KRAS WT; read-out: KRAS WT FRET data IC50
In short: as §2

KRAS G13C = KRAS G13C (Homo sapiens, UniProt P01116+P62937, G13C); assay: as above; assay type: biochemical; details: read-out: KRAS G13C FRET data, IC50
In short: as §2

KRAS G12S = KRAS G12S (Homo sapiens, UniProt P01116+P62937, G12S); assay: as above; assay type: biochemical; details: read-out: KRAS G12S FRET data, IC50
In short: as §2

NRAS Q61R = NRAS Q61R (Homo sapiens, UniProt P01111+P62937, Q61R); assay: as above; assay type: biochemical; details: NRAS Q61R; read-out: NRAS Q61R FRET data IC50
In short: (§3)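 IC50 reflects compound-driven Ras:Cyclophilin A ternary complex displacing BRAF RBD, read as lowered TR-FRET ratio relative to DMSO after Eu anti-His (10 nM) and APC anti-GST (50 nM) detection for 1.5 h. Prior incubation 3 h, 25° C, with 12.5 nM GMPPNP-loaded Ras, 50 nM BRAF RBD, 25 μM Cyclophilin A; top compound 30 μM.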

NRAS WT = NRAS WT (Homo sapiens, UniProt P01111+P62937); assay: as above; assay type: biochemical; details: NRAS WT; read-out: NRAS WT FRET data IC50
In short: as §3

KRAS Q61H = KRAS Q61H (Homo sapiens, UniProt P01116+P62937, Q61H); assay: as above; assay type: biochemical; details: KRAS Q61H; read-out: KRAS Q61H FRET data IC50
In short: as §3

NRAS Q61K = NRAS Q61K (Homo sapiens, UniProt P01111+P62937, Q61K); assay: as above; assay type: biochemical; details: NRAS Q61K; read-out: NRAS Q61K FRET data IC50
In short: as §3

KRAS G13C, sequence (P01116 1-169 isoform P01116-2 G13C): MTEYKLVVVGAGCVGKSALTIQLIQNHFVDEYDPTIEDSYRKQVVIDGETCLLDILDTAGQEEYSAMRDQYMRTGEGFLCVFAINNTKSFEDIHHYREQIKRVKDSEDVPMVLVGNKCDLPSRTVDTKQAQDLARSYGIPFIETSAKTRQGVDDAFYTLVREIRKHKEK
KRAS G13C, sequence (P62937 whole entry): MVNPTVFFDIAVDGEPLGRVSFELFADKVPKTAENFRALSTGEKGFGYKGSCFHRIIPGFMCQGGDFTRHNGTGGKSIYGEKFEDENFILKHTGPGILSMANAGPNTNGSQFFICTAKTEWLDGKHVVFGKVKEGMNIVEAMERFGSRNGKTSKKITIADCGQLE
NRAS G12C, sequence (P01111 whole entry G12C): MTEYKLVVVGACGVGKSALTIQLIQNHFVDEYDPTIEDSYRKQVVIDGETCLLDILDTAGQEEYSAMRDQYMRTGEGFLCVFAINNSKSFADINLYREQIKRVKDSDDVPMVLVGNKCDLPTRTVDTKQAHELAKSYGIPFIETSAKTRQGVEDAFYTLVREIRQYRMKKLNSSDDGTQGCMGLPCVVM
NRAS G12C, sequence (P62937 whole entry): as the sequence (P62937 whole entry) above
NRAS Q61K, sequence (P01111 whole entry Q61K): as the sequence (P01111 whole entry G12C) above, with C12G, Q61K counted along it
NRAS Q61K, sequence (P62937 whole entry): as the sequence (P62937 whole entry) above
KRAS G13D, sequence (P01116 1-169 isoform P01116-2 G13D limits assumed): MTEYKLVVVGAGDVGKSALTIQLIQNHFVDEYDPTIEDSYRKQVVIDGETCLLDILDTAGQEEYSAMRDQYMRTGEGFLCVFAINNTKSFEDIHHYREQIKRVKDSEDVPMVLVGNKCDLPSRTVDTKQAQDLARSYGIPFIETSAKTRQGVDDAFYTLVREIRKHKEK
KRAS G13D, sequence (P62937 whole entry): as the sequence (P62937 whole entry) above
KRAS WT, sequence (P01116 1-169 isoform P01116-2 limits assumed): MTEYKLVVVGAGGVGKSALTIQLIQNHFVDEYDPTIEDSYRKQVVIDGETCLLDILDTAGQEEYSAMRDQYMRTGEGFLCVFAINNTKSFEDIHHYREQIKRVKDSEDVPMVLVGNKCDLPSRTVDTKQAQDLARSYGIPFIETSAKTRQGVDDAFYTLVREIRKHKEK
KRAS WT, sequence (P62937 whole entry): as the sequence (P62937 whole entry) above
KRAS G12S, sequence (P01116 1-169 isoform P01116-2 G12S limits assumed): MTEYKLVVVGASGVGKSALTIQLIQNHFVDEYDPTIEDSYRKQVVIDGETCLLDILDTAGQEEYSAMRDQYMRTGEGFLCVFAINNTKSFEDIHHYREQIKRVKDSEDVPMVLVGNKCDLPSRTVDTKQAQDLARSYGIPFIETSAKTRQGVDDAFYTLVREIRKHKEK
KRAS G12S, sequence (P62937 whole entry): as the sequence (P62937 whole entry) above
KRAS G12D, sequence (P01116 1-169 isoform P01116-2 G12D limits assumed): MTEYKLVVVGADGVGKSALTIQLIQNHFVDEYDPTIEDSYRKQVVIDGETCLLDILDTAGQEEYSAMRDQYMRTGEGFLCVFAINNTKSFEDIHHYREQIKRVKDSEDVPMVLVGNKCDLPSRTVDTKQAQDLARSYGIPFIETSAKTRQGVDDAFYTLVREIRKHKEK
KRAS G12D, sequence (P62937 whole entry): as the sequence (P62937 whole entry) above
KRAS G12C, sequence (P01116 1-169 isoform P01116-2 G12C): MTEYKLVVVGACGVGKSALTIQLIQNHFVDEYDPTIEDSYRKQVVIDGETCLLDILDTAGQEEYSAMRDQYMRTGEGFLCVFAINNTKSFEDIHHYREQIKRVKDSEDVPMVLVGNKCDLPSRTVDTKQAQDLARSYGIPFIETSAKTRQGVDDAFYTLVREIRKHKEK
KRAS G12C, sequence (P62937 whole entry): as the sequence (P62937 whole entry) above
NRAS Q61R, sequence (P01111 whole entry Q61R): as the sequence (P01111 whole entry G12C) above, with C12G, Q61R counted along it
NRAS Q61R, sequence (P62937 whole entry): as the sequence (P62937 whole entry) above
KRAS Q61H, sequence (P01116 1-169 isoform P01116-2 Q61H limits assumed): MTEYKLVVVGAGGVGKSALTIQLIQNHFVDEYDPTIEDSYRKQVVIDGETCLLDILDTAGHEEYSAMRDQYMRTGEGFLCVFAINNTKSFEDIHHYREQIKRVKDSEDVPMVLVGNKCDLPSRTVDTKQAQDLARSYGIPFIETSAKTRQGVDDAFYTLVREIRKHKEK
KRAS Q61H, sequence (P62937 whole entry): as the sequence (P62937 whole entry) above
NRAS WT, sequence (P01111 whole entry): as the sequence (P01111 whole entry G12C) above, with C12G counted along it
NRAS WT, sequence (P62937 whole entry): as the sequence (P62937 whole entry) above
KRAS G12V, sequence (P01116 1-169 isoform P01116-2 G12V limits assumed): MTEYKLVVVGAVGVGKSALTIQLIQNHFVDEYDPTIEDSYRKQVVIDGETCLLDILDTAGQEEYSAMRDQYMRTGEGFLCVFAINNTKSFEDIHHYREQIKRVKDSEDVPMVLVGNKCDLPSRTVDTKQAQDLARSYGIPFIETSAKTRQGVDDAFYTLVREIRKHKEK
KRAS G12V, sequence (P62937 whole entry): as the sequence (P62937 whole entry) above

Structure (SMILES) | IC50 (Capan-1 (K-Ras G12V)) [nM] | IC50 (NCI-H358 (K-Ras G12C)) [nM] | IC50 (NRAS G12C) [nM] | IC50 (KRAS G12D) [nM] | IC50 (KRAS G13D) [nM] | IC50 (KRAS G12V) [nM] | IC50 (KRAS G12C) [nM] | IC50 (KRAS WT) [nM] | IC50 (KRAS G13C) [nM] | IC50 (KRAS G12S) [nM] | IC50 (NRAS Q61R) [nM] | IC50 (NRAS WT) [nM] | IC50 (KRAS Q61H) [nM] | IC50 (NRAS Q61K) [nM]
CCn1c(-c2cccnc2[C@H](C)OC)c2c3cc(ccc31)-c1csc(n1)C[C@H](NC(=O)[C@H]1C[C@@H]1C)C(=O)N1CCC[C@H](N1)C(=O)OCC(C)(C)C2 [Example A286, (1S,2S)—N-((6^3S,4S,Z)-1^1-ethyl-1^2-(2-((S)-1-methoxyethyl)pyridin-3-yl)-10,10-dimethyl-5,7-dioxo-6^1,6^2,6^3,6^4,6^5,6^6-hexahydro-1^1H-8-oxa-2(4,2)-thiazola-1(5,3)-indola-6(1,3)-pyridazinacycloundecaphane-4-yl)-2-methylcyclopropane-1-carboxamide] | 100 to 1000 | 10 to 100 | 100 to 1000 | 100 to 1000 | 100 to 1000 | 100 to 1000 | 100 to 1000 | 100 to 1000 | 100 to 1000 | 100 to 1000 | 100 to 1000 | 100 to 1000 | 100 to 1000 | 100 to 1000
CCn1c(-c2cccnc2[C@H](C)OC)c2c3cc(ccc31)-c1cc(O)cc(c1)C[C@H](NC(=O)[C@H](C(C)C)N(C)C(=O)[C@H]1C[C@@H]1C)C(=O)N1CCC[C@H](N1)C(=O)OCC(C)(C)C2 [Example A287] | 100 to 1000 | 100 to 1000 | 100 to 1000 | 100 to 1000 | 100 to 1000 | 100 to 1000 | 100 to 1000 | 10 to 100 | 100 to 1000 | 100 to 1000 | 100 to 1000 | 10 to 100 | 10 to 100 | 100 to 1000
CCn1c(-c2cccnc2[C@H](C)OC)c2c3cc(ccc31)-c1csc(n1)C[C@H](NC(=O)[C@H](C(C)C)N(C)C(=O)N1CC(n3nc(C)cc3C)C1)C(=O)N1CCC[C@H](N1)C(=O)OCC(C)(C)C2 [Example A297] | 100 to 1000 | 10 to 100 | 100 to 1000 | 1000 to 10000 | 1000 to 10000 | 100 to 1000 | 100 to 1000 | 100 to 1000 | 100 to 1000 | 100 to 1000 | 100 to 1000 | 100 to 1000 | 100 to 1000 | 100 to 1000
CCn1c(-c2cccnc2[C@H](C)OC)c2c3cc(ccc31)-c1csc(n1)C[C@H](NC(=O)[C@H](C(C)C)N(C)C(=O)N1CC(C)(OC)C1)C(=O)N1CCC[C@H](N1)C(=O)OCC(C)(C)C2 [Example A299] | 100 to 1000 | 10 to 100 | 100 to 1000 | 1000 to 10000 | 1000 to 10000 | 1000 to 10000 | 100 to 1000 | 100 to 1000 | 1000 to 10000 | 1000 to 10000 | 100 to 1000 | 100 to 1000 | 100 to 1000 | 100 to 1000
CCn1c(-c2cccnc2[C@H](C)OC)c2c3cc(ccc31)-c1csc(n1)C[C@H](NC(=O)C1(F)COC1)C(=O)N1CCC[C@H](N1)C(=O)OCC(C)(C)C2 [Example A320] | 100 to 1000 | 1000 to 10000 | 100 to 1000 | 1000 to 10000 | 1000 to 10000 | 100 to 1000 | 100 to 1000 | 100 to 1000 | 100 to 1000 | 100 to 1000 | 1000 to 10000 | 100 to 1000 | 100 to 1000 | 100 to 1000
CCn1c(-c2cccnc2[C@H](C)OC)c2c3cc(ccc31)-c1csc(n1)C[C@H](NC(=O)[C@@H](OC(=O)N1CC(OC)C1)C(C)C)C(=O)N1CCC[C@H](N1)C(=O)OCC(C)(C)C2 [Example A354] | 100 to 1000 | 100 to 1000 | 100 to 1000 | 1000 to 10000 | 1000 to 10000 | 100 to 1000 | 100 to 1000 | 100 to 1000 | 100 to 1000 | 100 to 1000 | 100 to 1000 | 100 to 1000 | 100 to 1000 | 100 to 1000
CCn1c(-c2cccnc2[C@H](C)OC)c2c3cc(ccc31)-c1csc(n1)C[C@H](NC(=O)[C@H]1CCO1)C(=O)N1CCC[C@H](N1)C(=O)OCC(C)(C)C2 [Example A360] | 100 to 1000 | 100 to 1000 | 100 to 1000 | 1000 to 10000 | 1000 to 10000 | 100 to 1000 | 100 to 1000 | 100 to 1000 | 100 to 1000 | 100 to 1000 | 1000 to 10000 | 100 to 1000 | 100 to 1000 | 100 to 1000
CCn1c(-c2cccnc2[C@H](C)OC)c2c3cc(ccc31)-c1csc(n1)C[C@H](NC(=O)C1CCC1)C(=O)N1CCC[C@H](N1)C(=O)OCC(C)(C)C2 [Example A369] | 100 to 1000 | 100 to 1000 | 100 to 1000 | 1000 to 10000 | 100 to 1000 | 100 to 1000 | 100 to 1000 | 100 to 1000 | 100 to 1000 | 100 to 1000 | 100 to 1000 | 100 to 1000 | 100 to 1000 | 100 to 1000
CCn1c(-c2cccnc2[C@H](C)OC)c2c3cc(ccc31)-c1csc(n1)C[C@H](NC(=O)[C@H](C(C)C)N1CCN(C)C1=O)C(=O)N1CCC[C@H](N1)C(=O)OCC(C)(C)C2 [Example A389] | 10 to 100 | 10 to 100 | 100 to 1000 | 1000 to 10000 | 1000 to 10000 | 1000 to 10000 | 100 to 1000 | 1000 to 10000 | 1000 to 10000 | 1000 to 10000 | 1000 to 10000 | 1000 to 10000 | 100 to 1000 | 100 to 1000
